Data: patent US20250108034A1, “EYE DROP FORMULATION” (priority 2021, published 2025)

Legend:
[1] = Stability study (shelf-life) of ASP and ASP-CD complexes in physiological saline; type: physicochemical; conditions: for Shelf-life (t90%): physiological saline
Method: The determination of ASP concentration was performed with HPLC using an Agilent 1260 (Agilent Technologies, Santa Clara, USA). As stationary phase a Zorbax Eclipse© C18 column 100×4.6 mm, 5 μm (Phenomenex, Torrance, CA, USA) was applied. Isocratic elution with purified water and methanol 10:90 (v/v) was applied for 6 min at a flow rate of 1.0 mL/min at 25° C. 10 μL of the samples were injected to determine the ASP concentration. The chromatograms were detected at 255 nm using UV-VIS diode array detector. Data were evaluated using ChemStation B.04.03. Software (Agilent Technologies, Santa Clara, USA). […] Chemical stability of ASP and ASP-CD complexes was investigated in physiological saline at room condition (25±0.5° C.) and cold place condition (4±0.5° C.) for 5 days. Actual drug content was quantified using HPLC in predetermined time intervals to predict shelf-life of formulations.

[2] = Ex vivo corneal drug permeation with Raman mapping; type: in vitro ADME, porcine; conditions: after 15 min treatment, compared to 5 min treatment
Method: The ex vivo penetration of ASP was examined with HPLC and Raman microscopy. Freshly donated porcine eyes obtained from the slaughterhouse was placed on a sterile cotton wool bed moistened with physiological saline solution and kept in refrigerator box during the transportation. The porcine eye was placed into a Teflon cell, where the cornea was uncovered and surrounded by a Teflon ring to prevent the flow of eye drops. The cornea was instilled with 1000 μL of physiological saline solution and 50 μL of ASP-CD formulation was added to the covering saline solution, which can imitate physiological dilution caused by tear fluid and incubated at 35° C. […] ASP content in the residual solution, aqueous humour and cornea was determined with HPLC. The corneal retention of AS was calculated according to Eq. 2., whereas apparent permeability by using the following equation: […]
Raman mapping was carried out to examine the distribution of selected ASP-CD formulation and initial ASP on porcine cornea. […] For localization of permeated formulation, the Raman spectra of ASP was set as profile, whose frequency of occurrence was determined by measuring the relative intensity of ASP in the Raman maps with ImageJ 1.4 software (National Institutes of Health, Bethesda, MD, USA).

[3] = test system: conjunctival and corneal surface of rabbit eyes; conditions: in vivo
[4] = test system: conjunctival and corneal surface of rabbit eyes; assay: Ocular administration of cyclodextrins to rabbit eyes (irritation/tolerability); conditions: concentrations of 5 and 12.5%

CCCCCCCCCCCCCCCC(=O)OC[C@H](O)[C@H]1OC(=O)C(O)=C1O [ASP, L-Ascorbic acid 6-palmitate]
Shelf-life (t90%) ([1]; stored at 4° C.): 4.58 h | Shelf-life (t90%) ([1]; stored at 25° C.): 8.37 h | Relative intensity of ASP in Raman maps [2]: increased

CC(O)COC[C@H]1O[C@@H]2O[C@H]3[C@H](O)[C@@H](O)[C@@H](O[C@H]4[C@H](O)[C@@H](O)[C@@H](O[C@H]5[C@H](O)[C@@H](O)[C@@H](O[C@H]6[C@H](O)[C@@H](O)[C@@H](O[C@H]7[C@H](O)[C@@H](O)[C@@H](O[C@H]8[C@H](O)[C@@H](O)[C@@H](O[C@H]1[C@H](O)[C@H]2O)O[C@@H]8COCC(C)O)O[C@@H]7COCC(C)O)O[C@@H]6COCC(C)O)O[C@@H]5COCC(C)O)O[C@@H]4COCC(C)O)O[C@@H]3COCC(C)O (stereo partly drawn) [HPBCD, (2-Hydroxypropyl)-beta-cyclodextrin]
Ocular tolerability [3]: well tolerated

benzalkonium chloride [BC]
Effect of BC on the shelf-life ([1]; 0.004 and 0.008% BC): no significant effect

randomly substituted methyl-beta-cyclodextrin [RAMEB]
Ocular irritation [4]: irritating
